Measurements: US10188637B2, “Granulate formulation of 5-methyl-1-phenyl-2-(1H)-pyridone and method of making the same” (HOFFMANN-LA ROCHE INC., priority 2016, dated 2019)

Tests used:
[1] = Flow function coefficient (FFC) of powder blends mixed in a turbula mixer; format: physicochemical; conditions: powder blend
Experimental: Flow function coefficient (FFC) is a measure of powder flow. Values less than about 4 are considered poor and sub-optimal for powder processing. Values between 4-10 are considered acceptable flow values for powder processing. Flow behavior was analyzed for pure pirfenidone (without excipients) and a binary powder mixture of pirfenidone and microcrystalline cellulose mixed with either about 1% by weight silica or about 2% by weight silica, as shown in Table 3 below. The components were mixed in a turbula mixer and the different flow properties of the blends were measured.

[2] = test system: human mesenchymal-like cells (lung fibroblasts, skin fibroblasts, prostate stromal cells, renal mesangial cells); conditions: graded concentrations in cell culture media; cited from earlier work
[3] = after oral administration; cited from earlier work

Flow Function Coefficient (Avg.) [1]: 2.3 | Flow Function Coefficient (Avg.), flow rating in words [1]: (poor flow)
Structure (SMILES): Cc1ccc(=O)n(-c2ccccc2)c1 [Pirfenidone, 5-methyl-1-phenyl-2-(1H)-pyridone]
Effective levels relative to levels exerting pharmacologically toxic effects on the cells [2]: ten to twenty times lower | Observed side effects [3]: relatively mild (drowsiness, gastric nausea or photosensitivity rash) | Serious adverse reactions [3]: No serious adverse reactions have been reported
